Test results from publication PMC10278368 (The Pediatric infectious disease journal, 2011).
Converted amounts (≈) assume the structure as drawn. Where a name gives a salt, the structure may show the parent alone. Read-outs that look alike come from different tables or passages of the source. Bridge positions count the residues as written; N and C are the ends. Square brackets hold non-standard residues; d marks the D form. Peptide text beside a SMILES is read from it. * marks the point of attachment. X1 = CC[C@H](C)CCCCC(=O)*; Dab = NCC[C@H](N)C(=O)O

Key:
[1] = test system: multidrug resistant Klebsiella pneumoniae; experiment: microbe, parasite or virus in culture
[2] = assay type: in vivo, human
[3] = test system: multidrug resistant Klebsiella pneumoniae; settings: blood culture isolate of the patient; for MIC: method not stated
Acinetobacter baumannii = experiment: MIC of the endotracheal aspirate isolate; assay type: cell-based; settings: isolate from endotracheal aspirate of the patient; reported as susceptible
[4] = test system: multidrug resistant Klebsiella pneumoniae; assay type: in vivo, human; settings: 1.5 mg/kg/dose every 12 hours IV in combination with amikacin once daily; persistently febrile; infant, n = 1

NCC[C@H](O)C(=O)N[C@@H]1C[C@H](N)[C@@H](O[C@H]2O[C@H](CN)[C@@H](O)[C@H](O)[C@H]2O)[C@H](O)[C@H]1O[C@H]1O[C@H](CO)[C@@H](O)[C@H](N)[C@H]1O [amikacin]
MIC [1]: < 2 µg/mL

CC[C@H](C)CCCCC(=O)N[C@@H](CCN)C(=O)N[C@H](C(=O)N[C@@H](CCN)C(=O)N[C@H]1CCNC(=O)[C@H]([C@@H](C)O)NC(=O)[C@H](CCN)NC(=O)[C@H](CCN)NC(=O)[C@H](CC(C)C)NC(=O)[C@@H](Cc2ccccc2)NC(=O)[C@H](CCN)NC1=O)[C@@H](C)O [Polymyxin B1] (X1-[Dab]T[Dab][Dab][Dab][dF]L[Dab][Dab]T; lactam 4-C)
clearance ([2]; human, in vivo, iv): 5.07 mL/min
half-life ([2]; human, in vivo, iv): 3.07 h
elimination half-life (rounded) ([2]; infant, n = 1, IV polymyxin B, steady-state serum, LC-MS): 3.1 h

C[C@@H](O)[C@H]1C(=O)N2C(C(=O)O)=C(S[C@@H]3CN[C@H](C(=O)N(C)C)C3)[C@H](C)[C@H]12 [meropenem]
MIC ([1]; read-out: MIC by E-test): 32 µg/mL (≈ 83.4 µM)

CO/N=C(\C(=O)N[C@@H]1C(=O)N2C(C(=O)O)=C(CSc3nc(=O)c(=O)[nH]n3C)CS[C@H]12)c1csc(N)n1 [ceftriaxone]
MIC [1]: 16 µg/mL (≈ 28.9 µM)

CC(C)(O/N=C(\C(=O)N[C@@H]1C(=O)N2C(C(=O)[O-])=C(C[n+]3ccccc3)CS[C@H]12)c1csc(N)n1)C(=O)O [ceftazidime]
MIC [1]: 16 µg/mL (≈ 29.3 µM)

piperacillin/tazobactam
MIC [3]: > 128 µg/mL
MIC (Acinetobacter baumannii): < 4 µg/mL

ampicillin/sulbactam
MIC [3]: > 32 µg/mL

CC[C@H](C)CCCCC(=O)N[C@@H](CCN)C(=O)N[C@H](C(=O)N[C@@H](CCN)C(=O)N[C@H]1CCNC(=O)[C@H]([C@@H](C)O)NC(=O)[C@H](CCN)NC(=O)[C@H](CCN)NC(=O)[C@H](CC(C)C)NC(=O)[C@@H](Cc2ccccc2)NC(=O)[C@H](CCN)NC1=O)[C@@H](C)O [polymyxin B, Polymyxin B sulfate] (X1-[Dab]T[Dab][Dab][Dab][dF]L[Dab][Dab]T; lactam 4-C (inferred); N-terminus assumed)
MIC by E-test ([3]; E-test): 1.5 µg/mL
days of persistently positive blood cultures under treatment [4]: 3 days

C[C@H]1[C@H](NC(=O)/C(=N\OC(C)(C)C(=O)O)c2csc(N)n2)C(=O)N1S(=O)(=O)O [aztreonam]
MIC [1]: > 64 µg/mL

CC[C@H](C)CCCCC(=O)N[C@@H](CCN)C(=O)N[C@H](C(=O)N[C@@H](CCN)C(=O)N[C@H]1CCNC(=O)[C@H]([C@@H](C)O)NC(=O)[C@H](CCN)NC(=O)[C@H](CCN)NC(=O)[C@H]([C@@H](C)CC)NC(=O)[C@@H](Cc2ccccc2)NC(=O)[C@H](CCN)NC1=O)[C@@H](C)O [Isoleucine Polymyxin B1] (X1-[Dab]T[Dab][Dab][Dab][dF]I[Dab][Dab]T; lactam 4-C)
clearance ([2]; human, in vivo, iv): 4.02 mL/min
